Test results reported in US20240342186A1, “PYRIDINE DERIVATIVES WITH N-LINKED CYCLIC SUBSTITUENTS AS cGAS INHIBITORS” (Boehringer Ingelheim International GmbH, priority 2021, published 2024).
Like-named read-outs stand apart in the source and are kept apart here.

Experiments:
[1] = system: cellular cGAS activity in baculovirus-stimulated THP1-Dual cells (IRF dependent Lucia luciferase reporter); assay: Human cGAS cell assay: inhibition of IFN induction in virus-stimulated THP1 cells (THP1(vir) IC50); assay type: cell-based; conditions: Homo sapiens, THP1-Dual, read-out: THP1(vir) IC50
Summary of the method: (§1)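 THP1-Dual cells with IRF-dependent Lucia luciferase reporter, stimulated by empty baculovirus (dsDNA delivery activating cGAS) or, for the counter assay, directly by cGAMP. 5000 cells/well, 8 concentrations from 10 μM top, 1% DMSO, 18 h at 37 °C; luminescence read, IC50 by 4-parameter logistic fit versus unstimulated low control.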

[2] = system: cGAMP-stimulated THP1-Dual cells (pathway directly downstream of cGAS); assay: cGAMP stimulated counter cell assay: inhibition of IFN induction in cGAMP-stimulated THP1 cells (THP1(cGAMP) IC50); assay type: cell-based, human; conditions: for IC50: Homo sapiens, THP1-Dual, read-out: THP1(cGAMP) IC50 (converted); for Ratio THP1(cGAMP) IC50 / THP1(vir) IC50: selectivity for cGAS inhibition
Summary of the method: as §1

[3] = molecular target: T1, cGAS (Homo sapiens (Human), UniProt Q8N884); conditions: groups of page 44/45 of WO 2020/142729; read-out: biochemical (in vitro) IC50 group; cited from earlier work
T1 sequence (Q8N884 whole entry): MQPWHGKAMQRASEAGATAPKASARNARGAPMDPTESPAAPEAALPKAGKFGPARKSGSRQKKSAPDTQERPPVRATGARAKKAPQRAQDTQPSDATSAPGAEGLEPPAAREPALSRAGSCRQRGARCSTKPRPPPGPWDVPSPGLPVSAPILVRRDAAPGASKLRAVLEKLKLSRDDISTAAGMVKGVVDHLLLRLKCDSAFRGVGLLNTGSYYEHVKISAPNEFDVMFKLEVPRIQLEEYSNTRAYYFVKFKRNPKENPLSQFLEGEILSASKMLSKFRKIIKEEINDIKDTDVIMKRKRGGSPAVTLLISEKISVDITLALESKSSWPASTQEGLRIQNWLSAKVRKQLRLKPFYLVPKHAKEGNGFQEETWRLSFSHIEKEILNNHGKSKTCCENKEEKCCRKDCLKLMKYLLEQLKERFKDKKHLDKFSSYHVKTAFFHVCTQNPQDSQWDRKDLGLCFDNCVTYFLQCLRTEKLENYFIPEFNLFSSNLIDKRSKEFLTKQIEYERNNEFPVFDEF

[4] = molecular target: T1, cGAS; assay: Human cGAS enzyme assay (hcGAS IC50, in vitro), cGAMP formation by RapidFire MS; assay type: biochemical;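 also: enzyme activated by 45 bp dsDNA with GTP and ATP (30 µM each), 60 min compound pre-incubation then 90 min reaction, cGAMP relative to cyclic-di-GMP internal standard, 8-point dilutions up to 10 µM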
[5] = system: cellular cGAS activity in dsDNA-stimulated human whole blood; assay: Human whole blood assay (hWB IC50): IFNα2α production after dsDNA transfection; assay type: cell-based; conditions: inhibition of IFN induction in dsDNA-stimulated human whole blood
Summary of the method: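 Citrated blood from healthy donors preincubated 60 min at room temperature with compound (top 10 µM, ~1:5 steps, 0.1% DMSO), then transfected with dsDNA/Fugene and incubated 22 h at 37 °C. Plasma IFNα2α measured by MSD immunoassay; IC50 from 4-parameter fit of % control (stimulated vs unstimulated).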

[6] = biochemical (in vitro) cGAS inhibition
[7] = inhibition of IFN induction in virus-stimulated THP1 cells
[8] = inhibition of IFN induction in cGAMP-stimulated THP1 cells

In the case of `Cc1nc(N2C[C@@H](Cc3nn[nH]n3)C[C@H]2C(=O)O)c2oc3ccccc3c2n1` [Example 25, reference compound], the IC50 ([1]; virus-stimulated THP1 cells) is given as 17000 nM, the IC50 ([2]; cGAMP-stimulated THP1 cells, counter assay) is given as > 17000 nM and the IC50 [3] is given as < 100 nM.
`COc1cc(-c2cnc(O[C@H]3C[C@@H](C(=O)O)N(c4nc(C(F)(F)F)nc5c4oc4ccccc45)C3)c(N3CCOC4(COC4)[C@@H]3C)c2)c(F)cn1` [Example 3.25] gave an IC50 [4, 6] of 9 nM, an IC50 [1, 7] of 19 nM and an IC50 [2, 8] of 9710 nM. The “Ratio THP1(cGAMP) IC50 / THP1(vir) IC50” value [2] was 502 and the IC50 [5] was 96 nM.
In the case of `CNc1cccc(-c2cnc(O[C@H]3C[C@@H](C(=O)O)N(c4nc(C(F)(F)F)nc5c4oc4ccccc45)C3)c(N3CCOC4(COC4)[C@@H]3C)c2)n1` [Example 7.03], the IC50 [4, 6] is reported as 21 nM, the IC50 [1, 7] is reported as 2 nM and the IC50 [2, 8] is reported as > 10000 nM. For the same compound, the “Ratio THP1(cGAMP) IC50 / THP1(vir) IC50” value [2] was 4151 and the IC50 [5] was 27 nM.
In the case of `CC(=O)Nc1cc(-c2cnc(O[C@H]3C[C@@H](C(=O)O)N(c4nc(C(F)F)nc5c4oc4ccccc45)C3)c(N3CCOC4(COC4)[C@@H]3C)c2)ccn1` [Example 3.15], the IC50 [4, 6] is reported as 10 nM, the IC50 [1, 7] is reported as 57 nM and the IC50 [2, 8] is reported as 19900 nM. The “Ratio THP1(cGAMP) IC50 / THP1(vir) IC50” value [2] was 348 and the IC50 [5] was 22 nM.
In the case of `C#Cc1cnc(O[C@H]2C[C@@H](C(=O)O)N(c3nc(C(F)F)nc4c3oc3ccccc34)C2)c(N2CCCC[C@@H]2C)c1` [Example 1.19], the IC50 [4, 6] is reported as 4 nM, the IC50 [1, 7] is reported as 699 nM and the IC50 [2, 8] is reported as > 16600 nM. For the same compound, the “Ratio THP1(cGAMP) IC50 / THP1(vir) IC50” value [2] was >24 and the IC50 [5] was 667 nM.
Compound `C#Cc1cnc(O[C@H]2C[C@@H](C(=O)O)N(c3nc(CF)nc4c3oc3ccccc34)C2)c(N2CCOC3(COC3)[C@@H]2C)c1` [Example 2.04] has an IC50 [4, 6] of 1 nM, an IC50 [1, 7] of 3 nM and an IC50 [2, 8] of 25400 nM. The “Ratio THP1(cGAMP) IC50 / THP1(vir) IC50” value [2] was 8125 and the IC50 [5] was 5 nM.
With `C[C@@H]1N(c2cc(-c3cncc(Cl)c3)cnc2O[C@H]2C[C@@H](C(=O)O)N(c3nc(C(F)(F)F)nc4c3oc3ccccc34)C2)CCOC12COC2` [Example 3.26] the IC50 [4, 6] was 11 nM, the IC50 [1, 7] was 48 nM and the IC50 [2, 8] was 9240 nM. For the same compound, the “Ratio THP1(cGAMP) IC50 / THP1(vir) IC50” value [2] was 193 and the IC50 [5] was 1370 nM.
For `C[C@@H]1N(c2cc(-c3cccc(CN)c3)cnc2O[C@H]2C[C@@H](C(=O)O)N(c3nc(C(F)F)nc4c3oc3ccccc34)C2)CCOC12COC2` [Example 3.19], the IC50 [4, 6] was 8 nM, the IC50 [1, 7] was 267 nM and the IC50 [2, 8] was > 16600 nM. For the same compound, the “Ratio THP1(cGAMP) IC50 / THP1(vir) IC50” value [2] was >62 and the IC50 [5] was 47 nM.
Work on `C[C@@H]1N(c2cc(-c3cn(C)cn3)cnc2O[C@H]2C[C@@H](C(=O)O)N(c3nc(C(F)(F)F)nc4c3oc3ccccc34)C2)CCOC12COC2` [Example 3.20] yielded an IC50 [4, 6] of 3 nM, an IC50 [1, 7] of 30 nM and an IC50 [2, 8] of 11500 nM. The “Ratio THP1(cGAMP) IC50 / THP1(vir) IC50” value [2] was 383 and the IC50 [5] was 50 nM.
In the case of `C[C@@H]1N(c2cc(Br)cnc2O[C@H]2C[C@@H](C(=O)O)N(c3nc(C(F)(F)F)nc4c3oc3ccccc34)C2)CCOC12COC2` [Example 1.10, (2S,4S)-4-({5-bromo-3-[(9S)-9-methyl-2,5-dioxa-8-azaspiro[3.5]nonan-8-yl]pyridin-2-yl}oxy)-1-[4-(trifluoromethyl)-8-oxa-3,5-diazatricyclo[7.4.0.0^2,7]trideca-1(9),2(7),3,5,10,12-hexaen-6-yl]pyrrolidine-2-carboxylic acid], the IC50 ([4]; biochemical (in vitro), human cGAS, 45 bp dsDNA, GTP/ATP) is reported as 5 nM, the IC50 [1, 7] is reported as 91 nM and the IC50 [2, 8] is reported as 16100 nM. For the same compound, the “Ratio THP1(cGAMP) IC50 / THP1(vir) IC50” value [2] was 178 and the IC50 [5] was 33 nM.
Work on `C#Cc1cnc(O[C@H]2C[C@@H](C(=O)O)N(c3nc(C(F)(F)F)nc4c3oc3ccccc34)C2)c(N2CCOC[C@@H]2C)c1` [Example 1.30] yielded an IC50 [4, 6] of 3 nM, an IC50 [1, 7] of 159 nM and an IC50 [2, 8] of 22100 nM. The “Ratio THP1(cGAMP) IC50 / THP1(vir) IC50” value [2] was 139 and the IC50 [5] was 80 nM.
`C[C@@H]1N(c2cc(-c3cccc(C(N)=O)c3)cnc2O[C@H]2C[C@@H](C(=O)O)N(c3nc(C(F)F)nc4c3oc3ccccc34)C2)CCOC12COC2` [Example 3.24] gave an IC50 [4, 6] of 6 nM, an IC50 [1, 7] of 57 nM and an IC50 [2, 8] of 19200 nM. The “Ratio THP1(cGAMP) IC50 / THP1(vir) IC50” value [2] was 336 and the IC50 [5] was 322 nM.
Work on `C[C@@H]1N(c2cc(-c3ccc(OC4CCOCC4)nc3)cnc2O[C@H]2C[C@@H](C(=O)O)N(c3nc(C(F)(F)F)nc4c3oc3ccccc34)C2)CCOC12COC2` [Example 3.29] yielded an IC50 [4, 6] of 66 nM, an IC50 [1, 7] of 591 nM and an IC50 [2, 8] of 6540 nM. The “Ratio THP1(cGAMP) IC50 / THP1(vir) IC50” value [2] was 11 and the IC50 [5] was 1570 nM.
`COc1cc(-c2cnc(O[C@H]3C[C@@H](C(=O)O)N(c4nc(C(F)(F)F)nc5c4oc4ccccc45)C3)c(N3CCOC[C@@H]3C)c2)ccn1` [Example 3.05] gave an IC50 [4, 6] of 14 nM, an IC50 [1, 7] of 523 nM and an IC50 [2, 8] of 6710 nM. For the same compound, the “Ratio THP1(cGAMP) IC50 / THP1(vir) IC50” value [2] was 13 and the IC50 [5] was 1830 nM.
In the case of `C#Cc1cnc(O[C@H]2C[C@@H](C(=O)O)N(c3nc(C(F)(F)F)nc4c3oc3ccccc34)C2)c(N2CCOCC2)c1` [Example 2.02], the IC50 [4, 6] is reported as 7 nM, the IC50 [1, 7] is reported as 752 nM and the IC50 [2, 8] is reported as > 16600 nM. For the same compound, the “Ratio THP1(cGAMP) IC50 / THP1(vir) IC50” value [2] was >22 and the IC50 [5] was 1030 nM.
For `C[C@H]1COCCN1c1cc(-c2ccnc(C(F)F)c2)cnc1O[C@H]1C[C@@H](C(=O)O)N(c2nc(C(F)(F)F)nc3c2oc2ccccc23)C1` [Example 3.04], the IC50 [4, 6] was 12 nM, the IC50 [1, 7] was 757 nM and the IC50 [2, 8] was 7780 nM. For the same compound, the “Ratio THP1(cGAMP) IC50 / THP1(vir) IC50” value [2] was 10 and the IC50 [5] was 2420 nM.
With `C#Cc1cnc(O[C@H]2C[C@@H](C(=O)O)N(c3nc(C(C)(F)F)nc4c3oc3ccccc34)C2)c(N2CCOC3(COC3)[C@H]2C)c1` [Example 1.15] the IC50 [4, 6] was 75 nM, the IC50 [1, 7] was 332 nM and the IC50 [2, 8] was 26200 nM. The “Ratio THP1(cGAMP) IC50 / THP1(vir) IC50” value [2] was 79 and the IC50 [5] was 702 nM.
`CNc1cc(-c2cnc(O[C@H]3C[C@@H](C(=O)O)N(c4nc(C(F)(F)F)nc5c4oc4ccccc45)C3)c(N3CCOC[C@@H]3C)c2)ccn1` [Example 3.02] gave an IC50 [4, 6] of 13 nM, an IC50 [1, 7] of 306 nM and an IC50 [2, 8] of 4920 nM. For the same compound, the “Ratio THP1(cGAMP) IC50 / THP1(vir) IC50” value [2] was 16 and the IC50 [5] was 1540 nM.
For `C#Cc1cnc(O[C@H]2C[C@@H](C(=O)O)N(c3nc(C(C)(F)F)nc4c3oc3ccccc34)C2)c(N2CCOC3(COC3)[C@@H]2C)c1` [Example 1.14], the IC50 [4, 6] was 3 nM, the IC50 [1, 7] was 6 nM and the IC50 [2, 8] was > 16600 nM. For the same compound, the “Ratio THP1(cGAMP) IC50 / THP1(vir) IC50” value [2] was >2708 and the IC50 [5] was 7 nM.
`C#Cc1cnc(O[C@H]2C[C@@H](C(=O)O)N(c3nc(C(F)(F)F)nc4c3oc3ccccc34)C2)c(N2CCOC3(COC3)[C@@H]2C)c1` [Example 1.12] gave an IC50 [4, 6] of 3 nM, an IC50 [1, 7] of 7 nM and an IC50 [2, 8] of 11900 nM. The “Ratio THP1(cGAMP) IC50 / THP1(vir) IC50” value [2] was 1769 and the IC50 [5] was 15 nM.
`COc1c(-c2cnc(O[C@H]3C[C@@H](C(=O)O)N(c4nc(C(F)F)nc5c4oc4ccccc45)C3)c(N3CCOC4(COC4)[C@@H]3C)c2)ccnc1N(C)C` [Example 4.02] showed an IC50 [4, 6] of 12 nM, an IC50 [1, 7] of 17 nM and an IC50 [2, 8] of 12600 nM. For the same compound, the “Ratio THP1(cGAMP) IC50 / THP1(vir) IC50” value [2] was 735 and the IC50 [5] was 42 nM.
With `CNc1cc(-c2cnc(O[C@H]3C[C@@H](C(=O)O)N(c4nc(C(F)(F)F)nc5c4oc4ccccc45)C3)c(N3CCOC4(COC4)[C@@H]3C)c2)ccn1` [Example 3.09] the IC50 [4, 6] was 9 nM, the IC50 [1, 7] was 8 nM and the IC50 [2, 8] was 4820 nM. For the same compound, the “Ratio THP1(cGAMP) IC50 / THP1(vir) IC50” value [2] was 585 and the IC50 [5] was 8 nM.
